Test results reported in US6537996B2, “Modulators of p38 MAP kinase” (Iconix Pharmaceuticals, Inc., priority 2000, dated 2003).

Tests used:
[1] = target: T1, Recombinant p38 (Homo sapiens, UniProt Q16539); experiment: p38 assay (32P incorporation into GST-ATF-2); assay type: biochemical; conditions: recombinant p38, GST-ATF-2 substrate, 30 μM ATP; IC50 estimated from graph
T1 construct: purchased Biomol SE-150
Description: (A) Protocol: Recombinant p38 was pre-incubated for 30 minutes at room temperature in ADB (Assay Dilution Buffer: 20 mM MOPS, pH 7.2, 20 mM MgCl2, 5 mM EGTA, 1 mM DTT, 25 mM β-glycerolphosphate, 2 mM pNPP, 0.1 mM sodium orthovanadate) with recombinant GST-ATF-2 and compounds at various concentrations. The DMSO concentration was held constant at 0.1% (v/v) independent of the compound concentration. Kinase reactions were started with a mixture of ^32P-γ-ATP and ATP in ADB and were incubated for 30 minutes at 37° C. Final concentrations in kinase reactions was 0.625 ng/μl recombinant p38 (Biomol, catalog number SE-150), 62.5 ng/μl recombinant GST-ATF-2 (Upstate Biotechnology, catalog #12-367) and 30 μM ATP (Amersham, catalog #AA0068, used within two weeks of the reference date). Reactions were terminated by the addition of stopmix (final concentrations: 62.5 mM Tris pH 6.8, 10% (v/v) glycerol, 5% (v/v) B-mercaptoethanol, 20 mg/ml SDS, 1 mg/ml bromophenol blue). At this point samples were either processed directly or stored at 4° C. For analysis, samples were heated to 95° C. for 5 min and proteins were separated by SDS-PAGE using 8-16% precast gels (Novex). […] Screens were scanned using a PhosphoImager SI (Molecular Dynamics) and the amount of radioactive ^32P incorporated into GST-ATF-2 was quantified using ImageQuant (Molecular Dynamics) software. […]

[2] = tested on: yeast; experiment: growth rescue ARC experiments performed in yeast; assay type: cell-based; conditions: Saccharomyces cerevisiae, read-out: in vivo IC50

T1 sequence (Q16539 whole entry): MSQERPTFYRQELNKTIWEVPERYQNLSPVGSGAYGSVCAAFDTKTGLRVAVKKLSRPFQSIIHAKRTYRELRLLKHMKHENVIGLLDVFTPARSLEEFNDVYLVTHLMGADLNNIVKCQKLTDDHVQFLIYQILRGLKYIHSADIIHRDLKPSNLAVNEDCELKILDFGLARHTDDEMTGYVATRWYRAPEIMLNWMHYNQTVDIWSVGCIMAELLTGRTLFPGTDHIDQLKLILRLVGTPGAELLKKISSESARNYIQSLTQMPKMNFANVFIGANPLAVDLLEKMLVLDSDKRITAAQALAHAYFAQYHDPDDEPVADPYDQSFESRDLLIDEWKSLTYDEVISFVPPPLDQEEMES

For `CC(C)/N=C(/Nc1cccc(C(F)(F)F)c1)c1ccncc1` [X, N-(3-trifluoromethylphenyl)-N′-isopropyl-4-amidinopyridine], the IC50 [1] was 0.75 µM and the IC50 [2] was 13.2 µM.
